Paper PMC3914206

Tests used:
Format in all cases: binding
Set-up in all cases: KINOMEscan: ABL1(F317L)-phosphorylated / KINOMEscan: ABL1(H396P)-nonphosphorylated / KINOMEscan: ABL1(H396P)-phosphorylated / KINOMEscan: ABL1(M351T)-phosphorylated / KINOMEscan: ABL1(T315I)-phosphorylated / KINOMEscan: ABL1-nonphosphorylated / KINOMEscan: ABL1-phosphorylated / KINOMEscan: ACVR2A / KINOMEscan: ACVR2B / KINOMEscan: ADCK3 / KINOMEscan: ADCK4 / KINOMEscan: AKT1 / KINOMEscan: AKT3 / KINOMEscan: ALK / KINOMEscan: ARK5 / KINOMEscan: AURKA / KINOMEscan: AURKC / KINOMEscan: BIKE / KINOMEscan: BMPR1A / KINOMEscan: BMPR1B / KINOMEscan: BMX / KINOMEscan: BRK / KINOMEscan: BRSK1 / KINOMEscan: BRSK2 / KINOMEscan: CAMK1 / KINOMEscan: CAMK1D / KINOMEscan: CAMK1G / KINOMEscan: CAMK2A / KINOMEscan: CAMK2B / KINOMEscan: AAK1 / KINOMEscan: CAMK2D / KINOMEscan: CAMK2G / KINOMEscan: ABL1(F317I)-nonphosphorylated / KINOMEscan: ABL1(F317I)-phosphorylated / KINOMEscan: ABL1(F317L)-nonphosphorylated: unit: % Ctrl
[1] = molecular target: T1, panel of 442 kinases (Homo sapiens, UniProt Q16288); conditions: kinase TRKC; compound concentration 10 µM
T1 construct: purchased KINOMEscan
Source text: (§1) We assessed the selectivity of members of this scaffold using the KINOMEscan methodology across a near comprehensive panel of 442 kinases [[18,27]].

[2] = molecular target: T2, panel of 442 kinases (Homo sapiens, UniProt P00519, M351T); conditions: Compound Concentration 10 µM
T2 construct: purchased KINOMEscan
Source text: as §1

[3] = molecular target: T3, panel of 442 kinases (Homo sapiens, UniProt O96013); conditions: Compound Concentration 10 µM
T3 construct: purchased KINOMEscan
Source text: as §1

[4] = molecular target: T4, panel of 442 kinases (Homo sapiens, UniProt Q15303); conditions: Compound Concentration 10 µM
T4 construct: purchased KINOMEscan
Source text: as §1

T4 sequence (Q15303 26-1308): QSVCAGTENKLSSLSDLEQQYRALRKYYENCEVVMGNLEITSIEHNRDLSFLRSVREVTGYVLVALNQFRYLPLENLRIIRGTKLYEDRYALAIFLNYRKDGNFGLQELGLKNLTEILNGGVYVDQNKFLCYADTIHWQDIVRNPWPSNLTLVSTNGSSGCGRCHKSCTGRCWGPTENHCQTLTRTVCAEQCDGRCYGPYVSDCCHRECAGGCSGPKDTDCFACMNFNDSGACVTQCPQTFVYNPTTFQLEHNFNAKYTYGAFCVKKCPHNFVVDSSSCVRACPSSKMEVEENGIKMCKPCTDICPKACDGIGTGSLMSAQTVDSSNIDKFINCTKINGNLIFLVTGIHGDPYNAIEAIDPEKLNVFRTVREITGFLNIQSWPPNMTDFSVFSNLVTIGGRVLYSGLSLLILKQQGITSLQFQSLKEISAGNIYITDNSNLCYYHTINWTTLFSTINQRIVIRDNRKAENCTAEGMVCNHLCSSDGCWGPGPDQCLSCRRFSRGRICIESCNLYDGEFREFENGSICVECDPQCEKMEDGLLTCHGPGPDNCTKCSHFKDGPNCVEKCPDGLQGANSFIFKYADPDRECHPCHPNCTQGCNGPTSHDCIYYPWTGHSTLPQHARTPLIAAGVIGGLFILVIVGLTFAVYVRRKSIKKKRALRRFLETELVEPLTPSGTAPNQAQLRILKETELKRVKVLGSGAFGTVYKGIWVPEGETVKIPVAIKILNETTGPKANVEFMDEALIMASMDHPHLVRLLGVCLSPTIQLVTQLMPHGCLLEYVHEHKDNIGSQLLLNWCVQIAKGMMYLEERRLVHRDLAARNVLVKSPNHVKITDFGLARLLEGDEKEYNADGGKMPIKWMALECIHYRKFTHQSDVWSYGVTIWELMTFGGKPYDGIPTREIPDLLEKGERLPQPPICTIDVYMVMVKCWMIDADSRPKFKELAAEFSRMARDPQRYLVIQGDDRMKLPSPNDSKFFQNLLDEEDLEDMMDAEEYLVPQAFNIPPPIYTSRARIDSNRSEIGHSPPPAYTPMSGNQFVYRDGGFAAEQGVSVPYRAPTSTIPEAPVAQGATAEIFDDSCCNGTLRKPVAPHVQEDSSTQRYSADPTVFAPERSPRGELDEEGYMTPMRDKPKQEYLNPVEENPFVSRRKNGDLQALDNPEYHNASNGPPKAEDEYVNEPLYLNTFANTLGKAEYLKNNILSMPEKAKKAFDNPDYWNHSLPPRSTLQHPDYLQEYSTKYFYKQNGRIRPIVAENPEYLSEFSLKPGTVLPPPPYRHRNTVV
T3 sequence (O96013 whole entry): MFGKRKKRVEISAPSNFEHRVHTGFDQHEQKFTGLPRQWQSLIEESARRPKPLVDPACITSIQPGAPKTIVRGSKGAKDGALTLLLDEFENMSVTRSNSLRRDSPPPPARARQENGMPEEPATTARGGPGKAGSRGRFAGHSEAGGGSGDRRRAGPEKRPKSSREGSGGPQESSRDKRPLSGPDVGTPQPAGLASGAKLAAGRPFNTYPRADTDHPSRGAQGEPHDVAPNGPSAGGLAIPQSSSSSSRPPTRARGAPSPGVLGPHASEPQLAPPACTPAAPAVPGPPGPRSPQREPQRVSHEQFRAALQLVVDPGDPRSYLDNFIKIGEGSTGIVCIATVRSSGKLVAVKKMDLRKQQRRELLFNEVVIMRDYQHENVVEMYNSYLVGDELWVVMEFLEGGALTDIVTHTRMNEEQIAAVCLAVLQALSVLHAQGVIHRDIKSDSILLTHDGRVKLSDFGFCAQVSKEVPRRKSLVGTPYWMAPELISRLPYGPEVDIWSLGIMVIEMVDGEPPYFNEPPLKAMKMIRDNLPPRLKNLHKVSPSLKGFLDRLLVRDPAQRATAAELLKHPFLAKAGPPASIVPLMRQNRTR
T1 sequence (Q16288 32-839): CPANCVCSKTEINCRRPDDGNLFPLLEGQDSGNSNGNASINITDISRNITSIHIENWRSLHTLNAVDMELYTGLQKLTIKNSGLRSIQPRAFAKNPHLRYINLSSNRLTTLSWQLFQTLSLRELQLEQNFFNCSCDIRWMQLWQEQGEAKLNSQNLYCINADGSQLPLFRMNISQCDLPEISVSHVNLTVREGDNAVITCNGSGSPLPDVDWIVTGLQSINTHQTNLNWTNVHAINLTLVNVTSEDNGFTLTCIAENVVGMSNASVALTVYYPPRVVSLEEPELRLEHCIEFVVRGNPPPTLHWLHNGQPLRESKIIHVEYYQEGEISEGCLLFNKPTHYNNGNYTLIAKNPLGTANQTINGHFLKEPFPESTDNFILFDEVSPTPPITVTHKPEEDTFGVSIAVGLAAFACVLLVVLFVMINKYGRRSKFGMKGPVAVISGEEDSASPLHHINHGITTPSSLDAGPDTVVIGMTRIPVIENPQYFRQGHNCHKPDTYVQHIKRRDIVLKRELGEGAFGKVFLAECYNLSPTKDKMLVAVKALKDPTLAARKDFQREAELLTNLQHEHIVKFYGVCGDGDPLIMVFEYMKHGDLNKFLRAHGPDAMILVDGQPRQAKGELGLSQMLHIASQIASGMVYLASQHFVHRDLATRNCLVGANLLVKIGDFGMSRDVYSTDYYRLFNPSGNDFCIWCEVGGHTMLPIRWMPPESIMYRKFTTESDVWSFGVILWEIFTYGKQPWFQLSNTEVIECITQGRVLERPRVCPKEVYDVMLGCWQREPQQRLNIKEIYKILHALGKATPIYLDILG

Structure (SMILES) | % Ctrl, TRKC [1] [% Ctrl] | KINOMEscan: ABL1(M351T)-phosphorylated [2] | KINOMEscan: PAK4 [3] | KINOMEscan: ERBB4 [4]
COc1cc(C(=O)N2CCC(N3CCN(C)CC3)CC2)ccc1Nc1ncc2c(n1)N1CCc3cccc(c31)C(=O)N2C [Compound 24] | 100 | 77 |  | 
CCOc1cc(C(=O)N2CCC(N3CCN(C)CC3)CC2)ccc1Nc1ncc2c(n1)N(C1CCCC1)c1ccccc1C(=O)N2C [Compound 26] | 90 | 89 | 100 | 100
COc1cc(C(=O)N2CCC(N3CCN(C)CC3)CC2)ccc1Nc1ncc2c(n1)N(C1CCCC1)c1ccccc1C(=O)N2C [Compound 25, 11-cyclopentyl-2-((2-methoxy-4-(4-(4-methylpiperazin-1-yl)piperidine-1-carbonyl)phenyl)amino)-5-methyl-5H-benzo[e]pyrimido[5,4-b][1,4]diazepin-6(11H)-one] | 100 | 80 | 91 | 100
COc1cc(C(=O)N2CCC(N3CCN(C)CC3)CC2)ccc1Nc1ncc2c(n1)N(C)c1ccccc1C(=O)N2C [15 (LRRK2-IN-1)] | 100 | 94 | 94 | 100
